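Five concentrations, 48 hours, 96-well plates. GI50 is the concentration that inhibits growth by half.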 Active and inactive are the calls of the source. Rule as the data show it: active = GI50 up to about 1.1 µM and inactive = higher.
Experiments:
Test in all cases: NCI tumour cell line growth inhibition, 48 h
[1] = tested on: SN12C
[2] = tested on: HL-60
[3] = tested on: SW-620
[4] = tested on: NCI-H23
[5] = tested on: EKVX
[6] = tested on: LOX IMVI
[7] = tested on: COLO 205
[8] = tested on: NCI/ADR-RES
[9] = tested on: Malme-3M
[10] = tested on: A549
[11] = tested on: KM12
[12] = tested on: CAKI-1
[13] = tested on: NCI-H460
[14] = tested on: K562
[15] = tested on: OVCAR-4
[16] = tested on: UACC-257
[17] = tested on: HOP-62
[18] = tested on: ACHN
[19] = tested on: HOP-92

Structure (SMILES)	GI50 [1]	GI50 [2]	GI50 [3]	GI50 [4]	GI50 [5]	GI50 [6]	GI50 [7]	GI50 [8]	GI50 [9]	GI50 [10]	GI50 [11]	GI50 [12]	GI50 [13]	GI50 [14]	GI50 [15]	GI50 [16]	GI50 [17]	GI50 [18]	GI50 [19]
CO/N=C1/C(n2[nH]c(=O)n(-c3ccccc3)c2=O)C2C=CC1n1c(=O)n(-c3ccccc3)c(=O)n12 (stereo unspecified)	> 100 µM (inactive)	> 100 µM (inactive)	> 100 µM (inactive)	> 100 µM (inactive)	> 100 µM (inactive)	> 100 µM (inactive)	> 100 µM (inactive)	> 100 µM (inactive)	> 100 µM (inactive)	> 100 µM (inactive)	> 100 µM (inactive)	> 100 µM (inactive)	> 100 µM (inactive)	> 100 µM (inactive)	> 100 µM (inactive)	> 100 µM (inactive)			
CC1(C)N=C(/C=N/O)C(C)(C)N1O	> 100 µM (inactive)	> 100 µM (inactive)	> 100 µM (inactive)	> 100 µM (inactive)	> 100 µM (inactive)	> 100 µM (inactive)	> 100 µM (inactive)	> 100 µM (inactive)	> 100 µM (inactive)	> 100 µM (inactive)	> 100 µM (inactive)		> 100 µM (inactive)	> 100 µM (inactive)	> 100 µM (inactive)		> 100 µM (inactive)	> 100 µM (inactive)	> 100 µM (inactive)
COc1ncc(/C=C2\OC(=O)c3ccccc32)c(OC)n1	> 100 µM (inactive)	> 100 µM (inactive)	> 100 µM (inactive)	> 100 µM (inactive)	23.5 µM (inactive)	7.16 µM (inactive)	> 100 µM (inactive)	40.5 µM (inactive)	10.7 µM (inactive)	17.5 µM (inactive)	> 100 µM (inactive)	0.21 µM (active)	17.9 µM (inactive)	29.2 µM (inactive)		57.3 µM (inactive)	12.1 µM (inactive)	24.4 µM (inactive)	47.5 µM (inactive)
O=C1c2cccc([N+](=O)[O-])c2C(=O)N1Cc1ccccc1	> 100 µM (inactive)	> 100 µM (inactive)	> 100 µM (inactive)	> 100 µM (inactive)	> 100 µM (inactive)	> 100 µM (inactive)	> 100 µM (inactive)	> 100 µM (inactive)		> 100 µM (inactive)	> 100 µM (inactive)	> 100 µM (inactive)	> 100 µM (inactive)	> 100 µM (inactive)	> 100 µM (inactive)	> 100 µM (inactive)	> 100 µM (inactive)	> 100 µM (inactive)	> 100 µM (inactive)
Cc1cn(CC(=S)NCCc2c[nH]c3ccccc23)c(=O)[nH]c1=O	> 100 µM (inactive)	56.8 µM (inactive)	> 100 µM (inactive)	59.3 µM (inactive)	17 µM (inactive)	> 100 µM (inactive)	> 100 µM (inactive)	99.1 µM (inactive)	69.5 µM (inactive)	74.1 µM (inactive)	> 100 µM (inactive)			39.1 µM (inactive)	48.8 µM (inactive)		> 100 µM (inactive)	69.3 µM (inactive)	> 100 µM (inactive)
O=C1c2ccccc2C2(c3ccc(Cl)cc3)NCc3ccccc3CN12 (stereo unspecified)	43.4 µM (inactive)	14 µM (inactive)	37.2 µM (inactive)	17.7 µM (inactive)	20.6 µM (inactive)	16.2 µM (inactive)	15.1 µM (inactive)	14 µM (inactive)		18.5 µM (inactive)	21.9 µM (inactive)	63 µM (inactive)	27.9 µM (inactive)	32.9 µM (inactive)	23.7 µM (inactive)	33 µM (inactive)	15.5 µM (inactive)	21.6 µM (inactive)	19.7 µM (inactive)
CC1=NN(c2cccc(Cl)c2)C(=N/c2nc3ccccc3s2)/C1=C\c1cccs1		14.3 µM (inactive)	54.2 µM (inactive)	22.5 µM (inactive)	24.1 µM (inactive)	40.7 µM (inactive)		20.9 µM (inactive)			43.8 µM (inactive)	52.7 µM (inactive)	35.6 µM (inactive)	32.7 µM (inactive)	35.6 µM (inactive)	37.4 µM (inactive)	19.5 µM (inactive)	39 µM (inactive)	32.4 µM (inactive)
Clc1cccc(Cl)c1C1SCC2=Nc3ccccc3CN21 (stereo unspecified)	46.7 µM (inactive)	21.7 µM (inactive)	33.3 µM (inactive)	14.6 µM (inactive)	23.7 µM (inactive)	19.1 µM (inactive)	14.1 µM (inactive)	19.4 µM (inactive)		20.5 µM (inactive)	20.8 µM (inactive)	60.3 µM (inactive)	19.5 µM (inactive)	31.3 µM (inactive)	80.4 µM (inactive)	34.7 µM (inactive)	19.5 µM (inactive)		40.7 µM (inactive)
O=S(=O)(c1ccccc1)C1(CCC2OCCO2)C=CC2(CC1)OCCO2 (stereo unspecified)	> 100 µM (inactive)	> 100 µM (inactive)	> 100 µM (inactive)	> 100 µM (inactive)	> 100 µM (inactive)		> 100 µM (inactive)	> 100 µM (inactive)	> 100 µM (inactive)	> 100 µM (inactive)			> 100 µM (inactive)	> 100 µM (inactive)	> 100 µM (inactive)	> 100 µM (inactive)	> 100 µM (inactive)	> 100 µM (inactive)	> 100 µM (inactive)
Nc1ncc(C=O)c(NCC2(CO)CCC2)n1	> 100 µM (inactive)	13 µM (inactive)	89.9 µM (inactive)	33.5 µM (inactive)		32.1 µM (inactive)	28.4 µM (inactive)	65.9 µM (inactive)	77.4 µM (inactive)	37.5 µM (inactive)	83.9 µM (inactive)	2.25 µM (inactive)	50 µM (inactive)	36.4 µM (inactive)	48.9 µM (inactive)	> 100 µM (inactive)	31.7 µM (inactive)		14.5 µM (inactive)
O=C1/C(=C/c2ccc(O)cc2)NC(=S)N1CN1CCCCC1	80 µM (inactive)	71.6 µM (inactive)	36.6 µM (inactive)	> 100 µM (inactive)	> 100 µM (inactive)	40.1 µM (inactive)	21 µM (inactive)	> 100 µM (inactive)	> 100 µM (inactive)	> 100 µM (inactive)	> 100 µM (inactive)			72.6 µM (inactive)	53.3 µM (inactive)		> 100 µM (inactive)	45.7 µM (inactive)	54.6 µM (inactive)
CC(C)(C)C1CCC2c3c([nH]c4ccccc34)C3C(=O)N(c4ccc(C(=O)O)cc4)C(=O)C3C2C1 (stereo unspecified)	12.8 µM (inactive)	4.52 µM (inactive)	13.6 µM (inactive)	17.7 µM (inactive)	22 µM (inactive)	14.5 µM (inactive)	19 µM (inactive)	16.7 µM (inactive)	14.9 µM (inactive)	12.2 µM (inactive)		16.7 µM (inactive)	16.3 µM (inactive)	4.43 µM (inactive)		13.9 µM (inactive)	0.1 µM (active)	11.7 µM (inactive)	11.2 µM (inactive)
N=C(N)NCC1CCCCCCN1 (stereo unspecified)	> 100 µM (inactive)	> 100 µM (inactive)	> 100 µM (inactive)	> 100 µM (inactive)	> 100 µM (inactive)		> 100 µM (inactive)	> 100 µM (inactive)	> 100 µM (inactive)	> 100 µM (inactive)	> 100 µM (inactive)	> 100 µM (inactive)	> 100 µM (inactive)	> 100 µM (inactive)	> 100 µM (inactive)	> 100 µM (inactive)	> 100 µM (inactive)	> 100 µM (inactive)	> 100 µM (inactive)
N=c1oc2ccc(Cl)cc2cc1C(=O)NC1CCCCC1	> 100 µM (inactive)	39.7 µM (inactive)	96.4 µM (inactive)	> 100 µM (inactive)		53 µM (inactive)	51.6 µM (inactive)	81.5 µM (inactive)		71.3 µM (inactive)	47.6 µM (inactive)	> 100 µM (inactive)	59.6 µM (inactive)	66.7 µM (inactive)	> 100 µM (inactive)	> 100 µM (inactive)	> 100 µM (inactive)	> 100 µM (inactive)	> 100 µM (inactive)
CC1(C)CC(=O)c2c(nc3ccc4ccccc4c3c2-c2ccc(NC(=O)CCCCCCCCC(=O)Nc3ccc(-c4c5c(nc6ccc7ccccc7c46)CC(C)(C)CC5=O)cc3)cc2)C1	> 100 µM (inactive)	> 100 µM (inactive)	> 100 µM (inactive)	> 100 µM (inactive)	> 100 µM (inactive)	> 100 µM (inactive)	> 100 µM (inactive)	> 100 µM (inactive)		> 100 µM (inactive)	> 100 µM (inactive)	> 100 µM (inactive)	> 100 µM (inactive)	> 100 µM (inactive)		> 100 µM (inactive)	> 100 µM (inactive)	> 100 µM (inactive)	> 100 µM (inactive)
CCc1nc(N)nc(N)c1-c1ccc(Cl)c(/N=N/N(C)C)c1	67.8 µM (inactive)	20.8 µM (inactive)	27.4 µM (inactive)	27.4 µM (inactive)	32.7 µM (inactive)	24.5 µM (inactive)	24.1 µM (inactive)	23.8 µM (inactive)		17.2 µM (inactive)	28.4 µM (inactive)	36.1 µM (inactive)	6.59 µM (inactive)	8.04 µM (inactive)	25.1 µM (inactive)	29.4 µM (inactive)	23.2 µM (inactive)	28.6 µM (inactive)	47.8 µM (inactive)

— ChEMBL document CHEMBL1201862, “PubChem BioAssay data set” (2004)
